{
  "source": "patent US11364242B2",
  "about": "“Treatment agents for inhibiting HIV and cancer in HIV infected patients” (UNIVERSITY OF MARYLAND, BALTIMORE, priority 2015, dated 2022)",
  "key": {"[1]": {"system": "non small cell lung cancer (NSCLC) A549 cells", "test": "A549 xenograft tumor in NSG mice", "format": "in vivo", "conditions": "5 mg/kg daily ip for 4 weeks", "method": "A xenograft tumor was induced by subcutaneous injection of 5×10^6 non small cell lung cancer (NSCLC) A549 cells in mice according to an embodiment.\nA xenograft tumor was induced by subcutaneous injection of 5×10^6 non small cell lung cancer (NSCLC) A549 cells in mice. After 3 weeks, tumors became visible (˜200 mm^3, as measured with calipers). Mice were treated with INK128, or vehicle control (FIG. 10A), daily (via ip) for 4 weeks. INK-128 was used at 5 mg/kg (FIG. 10B). Tumor volume was measured at the indicated time points (FIG. 10C)."}, "[2]": {"system": "HIV-1 BaL", "test": "Antiretroviral potency with and without INK128 in PBLs infected with HIV BaL", "format": "cell-based", "conditions": "two donors", "method": "PBLs were separated from buffy coats by density centrifugation over Ficoll-Hypaque (Sigma™), and activated by culture in the presence of 1 μg/mL anti-human CD3 antibody (clone x35, Fisher Scientific™) and 2 μg/mL anti-human CD28 antibody (Clone CD28.6, eBioscience™) for 3 days. Activated cells were infected by incubation with virus at a multiplicity of infection (MOI) of 0.001 for 2 hours. Infected cells were washed three times with PBS and cultured in 5% CO2 at 37° C., in RPMI/10% FBS supplemented with 100 units/mL IL-2 (Roche™) and antiviral drugs, in 96-well flat-bottom plates at a density of […] PBLs per 200 μL. Following 3 d of culture, half of the medium was replaced with fresh medium containing IL-2 and antiviral drugs. On day 7, viral replication was measured by p24 ELISA (Coulter) in culture supernatants and cell viability was measured by MTT assays.\nAvailable ARTs target the HIV lifecycle steps of entry, reverse transcription, integration, and maturation. […] In addition, by targeting virus transcription, INK128 could have favorable interactions with inhibitors of reverse transcription (RTIs), integration (Hs), and protease (PIs). […] We conducted these assays in activated PBLs infected with R5 HIV BaL and treated with various dilutions of Maraviroc (CCR5 antagonist), Efavirenz (RTI), Raltegravir (II), and Indinavir (PI). INK128 was used at low concentrations (<EC50) to better detect changes in ART potency (Table 7).\nPrism software. Data are from 2 experiments, each with a different donor."}, "[3]": {"test": "Tolerability in huPBL-NSG mice (body weight, wasting, death)"}, "[4]": {"system": "R5 HIV (JRFL)", "test": "Real-time PCR of early reverse transcription products and integrated HIV DNA in infected PBLs", "format": "cell-based", "conditions": "72 hours, PBLs from two donors", "method": "Activated PBLs were infected with R5 and X4 HIV strains using a MOI of 0.01. Infected cells were cultured in the presence of IL-2 and different concentrations of INK128. Cell aliquots were collected at 16 and 72 hours for analyses of early products of reverse transcription and of integration, respectively, by real time PCR. Detection of early products of reverse transcription was done with primers specific for the R/U5 region (60). For detection of integrated HIV DNA, a real-time nested Alu-HIV PCR assay was used as previously described (61, 62), with the modifications described herein.\nDNA was isolated using Miniblood kit (Qiagen™). PCR amplification was performed using Quantitect SYBR Green™ PCR Kit (Qiagen™) in a LightCycler™ (Biorad™). Detection of early products of reverse transcription was done in reactions containing 100 ng of DNA and the primer pair 5′-[…]-3′ (SEQ ID NO. 1) and 5′-[…]-3′ (SEQ ID NO. 2) (R/U5 region) (60). […] Amplified products were analyzed by denaturation/renaturation to verify the specific Tm. The PCR cycle at which the signal entered the exponential range was used for quantification, and HIV copy numbers were corrected for those of α-tubulin. […] As a standard curve for relative quantification of integrated DNA, the Alu-gag was first run using serial dilutions of DNA isolated from HIV infected PBLs (diluted in HIV-negative DNA). […]"}, "[5]": {"system": "CCR5", "test": "Flow cytometry quantitation of surface receptor on PBLs", "conditions": "IL-2, 7 days, three donors"}, "[6]": {"system": "R5 HIV BaL", "test": "PBL infectivity assay, p24 ELISA day 7", "format": "cell-based, HIV-1", "conditions": "Human immunodeficiency virus 1, BAL; PBLs from three donors", "excerpt": "(§1) PBLs were isolated from buffy coats of HIV seronegative donors (New York Blood Center). The laboratory-adapted strains HIV BaL and HIV HXB2; primary isolates HIV 92BR020, 92UG031, 93BR029, and 93UG082; and multidrug resistant molecular clone NL4329129-2 were obtained from the NIH AIDS Repository. Primary isolate 2044 was from Paul Clapham (Windeyer Institute), and 1633 and 1638 from the Institute of Human Virology (University of Maryland School of Medicine). Maraviroc, efavirenz, raltegravir, and indinavir were from the NIH AIDS Repository. INK128 was purchased from ApexBio. Proliferation of PBLs was measured by the MTT kit (Roche), following the manufacturer's directions. PBL infectivity assays were performed as described herein.\n(§2) PBLs were separated from buffy coats by density centrifugation over Ficoll-Hypaque (Sigma™), and activated by culture in the presence of 1 μg/mL anti-human CD3 antibody (clone x35, Fisher Scientific™) and 2 μg/mL anti-human CD28 antibody (Clone CD28.6, eBioscience™) for 3 days. Activated cells were infected by incubation with virus at a multiplicity of infection (MOI) of 0.001 for 2 hours. […] On day 7, viral replication was measured by p24 ELISA (Coulter) in culture supernatants and cell viability was measured by MTT assays.\n(§3) EC50 values were determined by variable slope nonlinear regression analysis. […]"}, "[7]": {"system": "X4 HIV HXB2", "test": "PBL infectivity assay, p24 ELISA day 7", "format": "cell-based, HIV-1", "conditions": "Human immunodeficiency virus 1, HXB2; PBLs from three donors", "excerpt": "as §1, §2, §3"}},
  "note": "Entries after “also recorded” stand apart in the source; their conditions may differ.",
  "data": [
    {"smiles": "CC(C)n1nc(-c2ccc3oc(N)nc3c2)c2c(N)ncnc21", "note": "[INK128, 5-(4-amino-1-propan-2-ylpyrazolo[3,4-d]pyrimidin-3-yl)-1,3-benzoxazol-2-amine]", "values": [
      {"measurement": "tumor growth", "setting": "[1]", "value": "inhibits tumor growth"},
      {"measurement": "effect on the potency of the other tested ARTs (Efavirenz, Raltegravir, Indinavir)", "setting": "[2]", "value": "no negative effect"},
      {"measurement": "enhancement of the antiviral potency of Maraviroc", "setting": "[2]", "value": "five- to six fold"},
      {"measurement": "effect on weight of the animals", "setting": "[3]; 1-5 mg/kg once daily i.p. for 14 days", "value": "no adverse effects; also recorded: without obvious toxicity"},
      {"measurement": "toxicity in pilot experiment", "setting": "[3]; uninfected huPBL-NSG mice, 7 mg/kg daily i.p. for 2 wk", "value": "wasting and death"},
      {"measurement": "integrated provirus", "setting": "[4]", "value": "decreased levels"},
      {"measurement": "percentages of CCR5 expressing cells", "setting": "[5]; CD4+ and CD8+ T cell subsets", "value": "reduced"},
      {"measurement": "CCR5 receptor density (molecules/cell)", "setting": "[5]", "value": "decreased"},
      {"measurement": "EC50", "setting": "[6]", "value": 10.5, "unit": "nM"},
      {"measurement": "EC50", "setting": "[7]", "value": 38, "unit": "nM"}
    ]}
  ]
}
